From the supplement of paper PMC10331698
± gives the standard deviation of the averaged measurements.

Key:
Test in all cases: LOEC (log10 uM (lowest observed effect concentration))
[1] = compound: C=CC(=O)OCC(F)(F)C(F)(F)C(F)(F)C(F)(F)COC(=O)C=C [1H,1H,6H,6H-Perfluorohexane-1,6-diol diacrylate]
Procedure: (§1)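 BioMAP Diversity Plus panel in human primary cell co-cultures, 4 concentrations in duplicate blinded samples. Responses are log10 fold change versus DMSO control, processed with tcpl v2.1.0. A hit is called when responses at any concentration exceed the cutoff (the larger of 3*bmad or log10(1.2)); the lowest observed effect concentration (modl_ga, log10 uM) is reported for hits.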

[2] = compound: FC(F)(I)C(F)(F)C(F)(F)C(F)(F)C(F)(F)C(F)(F)I [1,6-Diiodoperfluorohexane]
Procedure: as §1

[3] = compound: O=C(CC(=O)C(F)(F)C(F)(F)C(F)(F)F)c1cccs1 [(Perfluorobutyryl)-2-thenoylmethane]
Procedure: as §1

Perfluoropinacol = compound: OC(C(F)(F)F)(C(F)(F)F)C(O)(C(F)(F)F)C(F)(F)F [Perfluoropinacol]
Procedure: as §1

[4] = compound: OCCC(F)(F)C(F)(F)C(F)(F)C(F)(F)C(F)(F)C(F)(F)C(F)(F)C(F)(F)F [8:2 Fluorotelomer alcohol]
Procedure: as §1

[5] = compound: OCCCC(F)(F)C(F)(F)C(F)(F)C(F)(F)C(F)(F)C(F)(F)C(F)(F)C(F)(F)F [3-(Perfluorooctyl)propanol]
Procedure: as §1

[6] = compound: OCC(F)(F)C(F)(F)C(F)(F)C(F)(F)C(F)(F)C(F)(F)C(F)(F)C(F)(F)CO [1H,1H,10H,10H-Perfluorodecane-1,10-diol]
Procedure: as §1

Row | Test System | LOEC (log10 uM) [1] | LOEC (log10 uM) [2] | LOEC (log10 uM) [3] | LOEC (log10 uM) (Perfluoropinacol) | LOEC (log10 uM) [4] | LOEC (log10 uM) [5] | LOEC (log10 uM) [6]
1 | LPS VCAM1 down | 1.3 | 1.54 ± 0.34 | 1.78 | 1.54 ± 0.34 | 1.07 ± 0.32 | 1.07 ± 0.32 | –
2 | 3C TissueFactor down | 1.07 ± 0.32 | 1.78 | 1.3 | 1.3 | 1.54 ± 0.34 | 1.3 | –
3 | SAg Eselectin down | 0.845 | 1.78 | 0.845 | 1.3 | 1.54 ± 0.34 | 1.78 | –
4 | BE3C IL1a down | 1.07 ± 0.32 | 1.78 | 1.3 | 1.3 | 1.3 | 1.78 | –
5 | 3C IL8 down | 1.54 ± 0.34 | 1.54 ± 0.34 | 0.845 | 1.78 | 1.78 | 1.3 | –
6 | 3C VCAM1 down | 1.3 | 1.54 ± 0.34 | 1.3 | 1.78 | 1.3 | 1.3 | –
7 | KF3CT MCP1 up | – | – | – | 1.3 | – | – | –
8 | hDFCGF CollagenI down | – | – | 1.3 | – | 1.78 | – | –
9 | LPS IL8 down | 1.3 | 1.54 ± 0.34 | – | – | 1.54 ± 0.34 | 0.845 | –
10 | MyoF CollagenI down | 1.3 | 0.845 | 1.3 | 1.78 | 1.3 | 1.3 | –
11 | 4H uPAR down | 1.78 | 1.78 | 1.78 | 1.07 ± 0.32 | 1.3 | 1.54 ± 0.34 | –
12 | 4H SRB down | 1.3 | 1.54 ± 0.34 | 1.3 | 1.3 | 1.3 | 1.3 | –
13 | SAg MCP1 down | 1.07 ± 0.32 | 1.78 | 1.3 | 1.54 ± 0.34 | 1.78 | 1.54 ± 0.34 | –
14 | CASM3C PAI1 down | 1.78 | 1.78 | – | – | 1.78 | 1.78 | –
15 | CASM3C IL8 down | – | 1.54 ± 0.34 | – | – | – | 1.78 | –
16 | MyoF TIMP1 down | 1.3 | 1.3 | – | – | 1.3 | 1.3 | –
17 | CASM3C uPAR down | 1.78 | 1.78 | 1.78 | 1.54 ± 0.34 | 1.78 | 1.78 | –
18 | BE3C Keratin818 down | – | 1.78 | 1.3 | – | 1.54 ± 0.34 | 1.78 | –
19 | CASM3C TissueFactor up | 1.78 | – | – | – | – | – | –
20 | BE3C MMP1 down | – | – | 1.78 | – | – | – | –
21 | BE3C tPA down | 1.54 ± 0.34 | 1.78 | 1.3 | 1.3 | 1.3 | 1.78 | –

Row | Test System | LOEC (log10 uM) [1] | LOEC (log10 uM) [2] | LOEC (log10 uM) [3] | LOEC (log10 uM) (Perfluoropinacol) | LOEC (log10 uM) [4] | LOEC (log10 uM) [5] | LOEC (log10 uM) [6]
22 | KF3CT IP10 down | 1.3 | 1.3 | – | 1.78 | 1.3 | 1.3 | –
23 | CASM3C MIG down | 0.845 | 1.3 | 1.54 ± 0.34 | 1.78 | 1.78 | 1.3 | –
24 | LPS MCSF down | 1.3 | 1.78 | – | 1.3 | 1.04 ± 1 | 1.3 | –
25 | hDFCGF IL8 down | 1.3 | 0.845 | – | – | 1.3 | 1.3 | 1.78
26 | 3C uPAR down | 1.3 | 1.78 | 0.845 | 0.845 | 1.3 | 1.54 ± 0.34 | –
27 | LPS Eselectin down | 1.3 | 1.54 ± 0.34 | – | 1.78 | 1.78 | 0.845 | –
28 | IMphg IL1a down | – | – | – | – | – | 1.78 | 1.78
29 | CASM3C Thrombomodulin up | – | 1.3 | – | – | – | – | –
30 | SAg CD38 down | 1.3 | 1.78 | 1.07 ± 0.32 | 1.3 | 1.3 | 1.3 | –
31 | 3C Eselectin down | 1.3 | 1.54 ± 0.34 | 1.78 | 1.54 ± 0.34 | – | 1.54 ± 0.34 | –
32 | hDFCGF SRB up | – | – | 0.845 | – | – | – | –
33 | hDFCGF SRB down | 0.845 | 0.845 | – | – | 1.3 | 0.845 | 1.54 ± 0.34
34 | KF3CT ICAM1 up | – | – | – | 1.78 | – | – | –
35 | BF4T CD90 down | – | – | – | – | – | 1.54 ± 0.34 | –
36 | 4H VEGFRII down | 1.54 ± 0.34 | – | 1.3 | 1.54 ± 0.34 | 1.54 ± 0.34 | 1.78 | –
37 | SAg MIG down | 1.3 | 1.78 | 1.78 | 1.78 | 1.78 | 1.78 | –
38 | KF3CT uPA down | 1.3 | 1.3 | – | – | 1.3 | 1.3 | –
39 | MyoF bFGF down | 1.3 | 0.845 | – | – | 1.3 | 1.3 | –
40 | BF4T IL1a down | 1.78 | 1.54 ± 0.34 | 1.78 | – | – | 1.78 | –
41 | CASM3C LDLR down | – | 1.54 ± 0.34 | 1.54 ± 0.34 | – | 1.78 | 1.78 | –
42 | LPS TissueFactor down | 1.3 | 1.78 | – | 1.78 | 1.78 | 1.31 ± 0.66 | –

Row | Test System | LOEC (log10 uM) [1] | LOEC (log10 uM) [2] | LOEC (log10 uM) [3] | LOEC (log10 uM) (Perfluoropinacol) | LOEC (log10 uM) [4] | LOEC (log10 uM) [5] | LOEC (log10 uM) [6]
43 | 4H MCP1 down | 1.78 | 1.54 ± 0.34 | 1.3 | 1.54 ± 0.34 | – | 1.78 | –
44 | hDFCGF ICAM1 down | 0.845 | 0.845 | – | – | 1.3 | 1.07 ± 0.32 | 1.78
45 | BE3C uPA down | 1.54 ± 0.34 | 1.78 | 1.78 | 1.78 | 1.78 | 1.78 | –
46 | LPS TissueFactor up | – | – | 1.3 | – | – | – | –
47 | CASM3C HLADR down | 1.54 ± 0.34 | 1.3 | 1.78 | 1.07 ± 0.32 | 1.3 | 1.78 | –
48 | MyoF PAI1 down | 1.3 | 1.07 ± 0.32 | – | 1.78 | 1.3 | 1.3 | –
49 | BF4T IL8 down | – | 1.3 | – | – | – | 1.78 | –
50 | CASM3C SRB down | 1.78 | 1.3 | 1.78 | 1.78 | 1.78 | 1.54 ± 0.34 | –
51 | MyoF Decorin down | 1.3 | 1.3 | – | 1.78 | 1.3 | 1.3 | –
52 | CASM3C IL6 down | – | 1.54 ± 0.34 | 1.78 | – | – | – | –
53 | KF3CT MCP1 down | 1.07 ± 0.32 | 0.845 | – | – | 1.3 | 1.3 | 1.78
54 | 3C HLADR down | 1.3 | 1.54 ± 0.34 | 1.07 ± 0.32 | 1.3 | 1.3 | 1.3 | –
55 | BE3C SRB down | – | 1.78 | 1.78 | 1.78 | 1.3 | 1.78 | –
56 | BF4T MMP3 down | – | 1.3 | 1.54 ± 0.34 | – | – | 1.78 | –
57 | CASM3C MCP1 up | – | – | – | 1.54 ± 0.34 | – | – | –
58 | BF4T uPA down | 1.78 | 1.54 ± 0.34 | 1.54 ± 0.34 | – | 1.78 | 1.54 ± 0.34 | –
59 | 3C Thrombomodulin up | – | 1.54 ± 0.34 | – | – | – | – | –
60 | CASM3C MCP1 down | 1.78 | 1.3 | 1.78 | – | 1.78 | 1.54 ± 0.34 | –
61 | LPS Thrombomodulin down | – | – | – | 1.07 ± 0.32 | – | – | –
62 | 3C ICAM1 down | 1.54 ± 0.34 | 1.78 | 1.78 | – | 1.78 | 1.3 | –
63 | CASM3C TissueFactor down | – | – | 0.845 | – | 1.78 | 1.78 | –

Row | Test System | LOEC (log10 uM) [1] | LOEC (log10 uM) [2] | LOEC (log10 uM) [3] | LOEC (log10 uM) (Perfluoropinacol) | LOEC (log10 uM) [4] | LOEC (log10 uM) [5] | LOEC (log10 uM) [6]
64 | MyoF MMP1 down | – | – | – | – | – | 1.3 | –
65 | 3C MIG down | 1.3 | 1.78 | 1.78 | 1.78 | – | 1.78 | –
66 | MyoF CollagenIV down | 1.3 | – | – | – | – | – | –
67 | IMphg IL8 down | – | 1.78 | – | – | – | – | 1.78
68 | LPS SRB down | 1.3 | 1.78 | 1.3 | 1.3 | 1.3 | 1.3 | –
69 | LPS CD40 down | 0.845 | 1.78 | 1.54 ± 0.34 | 1.3 | 1.3 | 1.3 | –
70 | KF3CT IL1a down | 1.54 ± 0.34 | 1.3 | – | – | 1.3 | 0.845 | –
71 | BF4T Keratin818 down | – | 1.78 | 1.3 | – | – | 1.54 ± 0.34 | –
72 | hDFCGF MCP1 up | – | – | – | 1.3 | – | – | –
73 | LPS PGE2 down | 1.3 | – | – | – | – | – | –
74 | CASM3C MCSF down | 1.07 ± 0.32 | 1.3 | 1.78 | 1.78 | 1.54 ± 0.34 | 1.3 | –
75 | SAg CD69 down | 1.3 | 1.78 | 0.845 | 1.3 | 1.54 ± 0.34 | 1.54 ± 0.34 | –
76 | 3C MCP1 down | 1.3 | 1.54 ± 0.34 | 1.3 | 1.78 | 1.78 | 1.3 | –
77 | SAg IL8 down | 1.3 | 1.78 | 1.07 ± 0.32 | 1.54 ± 0.34 | 1.78 | 1.78 | –
78 | MyoF IL8 down | 1.3 | 1.3 | – | – | 1.3 | 1.3 | –
79 | CASM3C SAA down | 1.3 | 1.3 | 1.78 | – | 1.78 | 1.78 | –
80 | MyoF SRB down | 1.3 | 0.845 | – | 1.78 | 1.3 | 1.3 | –
81 | hDFCGF TIMP1 down | 0.845 | 1.07 ± 0.32 | – | – | 1.3 | 1.07 ± 0.32 | 1.78
82 | BF4T MMP1 down | – | 1.78 | 1.54 ± 0.34 | – | – | 1.78 | –
83 | KF3CT ICAM1 down | 1.3 | 1.07 ± 0.32 | – | – | 1.3 | 1.3 | 1.78
84 | LPS MCP1 down | 1.3 | 1.78 | 1.3 | 1.3 | 1.3 | 1.07 ± 0.32 | –
